In patent publication US11376278B2, “Compositions and methods for treating disease” (Sulfilatec, Inc., priority 2016, dated 2022):
Values joined by “and” are separate entries in the source; they are usually repeats but may differ in a detail not shown here. Identical values can stand only once. “Also recorded” adds a separate entry of the source.

How the values were obtained:
[1] = test system: acute heart failure patients; conditions: acute heart failure patients in Japan; cited from earlier work
[2] = test system: patients with acute decompensated heart failure; conditions: cited from earlier work
[3] = test system: salt sensitive Dahl rats on high salt diet; assay: Survival of salt sensitive Dahl rats on high salt (8% NaCl) diet, 10 week study; format: in vivo, rat
Description: Control rats received AIN76A without supplemental chloride or bromide. 9 rats per study arm.
Mortality events were counted over the 10 week study. […] Thus, administration of Br^− and together increased the survival probability of 52% as compared to administration of alone (FIG. 1).

[4] = Serum Br- concentration in spontaneously hypertensive rats (SHR) after 10 weeks on diet; format: in vivo, rat; conditions: AIN-76A+Br diet
Experimental: (A) Serum Br^− concentrations from rats fed a daily diet over 10 weeks of “AIN-76A”, “AIN-76A+8% NaCl”, “AIN-76A+Br”, or “AIN-76A+8% NaCl+Br”. Salt sensitive Dahl rats as well as Spontaneously Hypertensive Rats (SHR) were used in these studies. The two diets containing 8% NaCl (eg. “AIN-76A+8% NaCl” and “AIN-76A+8% NaCl+Br”) were fed to Dahl rats while the remaining two diets (eg. “AIN-76A” and “AIN-76A+Br”) were fed to SHR, as indicated in panel A. Serum Br^− measurements were determined using mass spectrometry.
Rats were administered 10 mg of NaBr per kg of AIN76A diet for 10 weeks. At the end of the study, serum Br^− levels in Br-treated rats were compared to serum Br^− levels in SHR on AIN76A as well as Wistar rats on AIN76A.

[5] = test system: spontaneously hypertensive rat (SHR) model of cardiovascular disease; assay: 10 week repeat dosing study in SHR disease model (organ weights, survival, urinary protein, safety); format: in vivo
Experimental: (A-B) Heart and kidney weights from 10 week repeat dosing study in SHR model. Br^− administered daily via diet, with AIN-76a as base diet. WKY served as genetic control. Both kidneys per animal weighed together. […] (C-D) Heart and kidney weights from panels A-B normalized to body weight. […] (E) Rats were administered a diet of AIN76A with or without 10 mg NaBr per kg feed (“SHR” and “SHR+Br” study arms, respectively). Survival probability was calculated between SHR rats receiving dietary Br^− and SHR rats receiving AIN76A control diet over a 10 week study period. As a second control, Wistar Kyoto (WKY) rats were fed AIN76A control diet over the same period. 8 rats per study arm.
Eight SHR animals received AIN76A diet for 10 weeks while 8 SHR animals received AIN76A supplemented with 10 mg NaBr/kg diet.

cardiac fibrosis in SHR = assay: Cardiac interstitial fibrosis, Masson's Trichrome staining, SHR; format: in vivo, rat; conditions: male SHR, 10 mg NaBr per kg AIN-76a, oral daily, 10 weeks, p<0.0001
Experimental: (§1) AIN-76A was base diet for all animals. […] Fibrosis determined from 5 μm tissue sections stained with Masson's Trichrome. […] Approximately 25-30 images were collected and processed per animal.
Following conclusion of the in vivo study, rat hearts were formalin-fixed, paraffin-embedded, and 5 μm-thick sections were obtained for histochemical analysis.

[6] = test system: cardiac fibrosis in salt sensitive Dahl rats on a high salt diet; assay: Cardiac interstitial fibrosis, Masson's Trichrome staining, Dahl rats on high salt diet; format: in vivo, rat; conditions: 300 mg NaBr per kg AIN-76a+8% NaCl, 10 weeks, p<0.0001
Experimental: as §1

10 week-old male SHR = assay: Blood pressure and heart rate (tail cuff) one day after single IP administration in SHR; format: in vivo, rat; conditions: single IP 154.5 μg NaBr per kg
Experimental: (A) In 10 week-old male SHR, single administration of Br^− reduced systolic and diastolic blood pressures compared to saline control. […] (C-D) Measured values for systolic (C) and diastolic (D) blood pressure, denoting statistical significance where achieved. 154.5 μg NaBr per kg rat body weight injected via IP. All “Post Administration” data collected one day following administration. n=8 in Br Treatment group, =5 in saline control. BP & HR measured via tail cuff. *:p<0.05, t test.
The inventors next asked whether Br^− exerts any short-term activity in addition to the improved cardiac fibrosis noted after 10 weeks administration. Returning to the SHR preclinical model of disease, the inventors specifically asked whether Br^− administration modulates certain biomarkers associated with cardiovascular disease at one day post-administration. To this end, Br^− was administered to 8 SHR via intraperitoneal (IP) injection with an estimated 0.154 μg NaBr per gram body weight. For control, 8 SHR were administered saline via IP injection containing an estimated 4 ng NaBr per gram body weight. […] Without wishing to be bound by theory, embodiments as described herein can therapeutically improve certain hemodynamic and circulating biomarkers that are associated with progression of cardiovascular and kidney diseases. Moreover, Br^− achieves its cardiovascular and renal therapeutic activities in part via modulation of natriuretic peptide signaling.

dogs (epilepsy) = conditions: dogs that do not respond to an initial course of Br- treatment; cited from earlier work
[7] = test system: humans (sedative, anti-epilepsy effect); conditions: in vivo; cited from earlier work
[8] = Serum Br- concentration in Dahl rats after 10 weeks on diet (mass spectrometry); conditions: AIN-76A+8% NaCl+Br diet
Experimental: (A) Serum Br^− concentrations from rats fed a daily diet over 10 weeks of “AIN-76A”, “AIN-76A+8% NaCl”, “AIN-76A+Br”, or “AIN-76A+8% NaCl+Br”. […] The two diets containing 8% NaCl (eg. “AIN-76A+8% NaCl” and “AIN-76A+8% NaCl+Br”) were fed to Dahl rats while the remaining two diets (eg. “AIN-76A” and “AIN-76A+Br”) were fed to SHR, as indicated in panel A. Serum Br^− measurements were determined using mass spectrometry.

[9] = one day post administration, vs saline

Molecule: CC[C@H](C)[C@@H]1NC(=O)[C@H](CCCNC(=N)N)NC(=O)[C@H](CC(=O)O)NC(=O)[C@H](CCSC)NC(=O)[C@H](CCCNC(=N)N)NC(=O)CNC(=O)CNC(=O)[C@H](Cc2ccccc2)NC(=O)[C@@H](NC(=O)[C@H](CO)NC(=O)[C@H](CO)NC(=O)[C@H](CCCNC(=N)N)NC(=O)[C@H](CCCNC(=N)N)NC(=O)[C@H](CC(C)C)NC(=O)[C@@H](N)CO)CSSC[C@@H](C(=O)N[C@@H](CC(N)=O)C(=O)N[C@@H](CO)C(=O)N[C@@H](Cc2ccccc2)C(=O)N[C@@H](CCCNC(=N)N)C(=O)N[C@@H](Cc2ccc(O)cc2)C(=O)O)NC(=O)CNC(=O)[C@H](CC(C)C)NC(=O)CNC(=O)[C@H](CO)NC(=O)[C@H](CCC(N)=O)NC(=O)[C@H](C)NC(=O)CNC1=O [carperitide]
- in-hospital mortality [1]: increased in-hospital mortality

Molecule: nesiritide
- mortality [2]: increased mortality
- renal function [2]: worsening renal function

Molecule: [Br-].[Na+] [Br^−, sodium bromide]
- increase of survival probability compared to high salt alone ([3]; Dahl rats, 8% NaCl + 300 mg NaBr per kg food vs 8% NaCl, 10 weeks): 52%
- survival probability ([3]; Dahl rats, AIN76A with 8% NaCl and 300 mg NaBr per kg food, 10 week study): 67%
- survival probability vs High Salt alone (log rank test) ([3]; High Salt+Br arm (AIN76A+8% NaCl+300 mg NaBr per kg feed), 9 rats per arm, p<0.001): Significantly greater survival probability
- serum Br- concentration, toxicity assessment [4]: non-toxic
- survival probability among groups ([5]; SHR+Br vs SHR and WKY, 10 week study, 8 rats per arm): no statistical difference
- absolute heart weight vs SHR on AIN-76a alone ([5]; SHR, 10 mg NaBr/kg diet daily, 10 weeks, p<0.05): significantly reduced; also recorded: Statistically significant reduction
- urinary protein levels ([5]; SHR, 10 mg NaBr/kg diet, through the end of the 10 week study): a difference that persisted
- urinary microprotein/creatinine ratio (urinary protein levels) ([5]; SHR, after one day on study diet (10 mg NaBr/kg)): significantly lower; also recorded: significantly reduced
- cardiac fibrosis (Masson's Trichrome blue staining) (cardiac fibrosis in SHR): dramatic reduction; also recorded: less cardiac fibrosis
- cardiac fibrosis (Masson's Trichrome) [6]: less cardiac fibrosis
- diastolic blood pressure (10 week-old male SHR; [9]): reduced
- systolic blood pressure (10 week-old male SHR; [9]): statistically significant reductions; also recorded: reduced
- heart rate (10 week-old male SHR; one day post, not statistically significant (p=0.052)): possible reduction
- therapeutic serum Br- for sedative effect (dogs (epilepsy)): above 25 mM
- circulating/serum Br- levels at which the anti-epilepsy effect occurs [7]: > 6 mM and 6 to 12 mM
- serum Br- concentration, toxicity assessment [8]: non-toxic
